{"source": "patent US20120052122A1", "about": "“Treatment Of Chronic Obstructive Pulmonary Disease With Phosphodiesterase-4 Inhibitor” (Nycomed GmbH, priority 2010, published 2012)", "key": {"[1]": {"test_system": "endotoxin challenged healthy volunteers", "test": "Endotoxin challenge in healthy volunteers"}, "[2]": {"test_system": "bronchial ciliary activity", "test": "Bronchial ciliary activity in vitro"}, "animal models": {"test_system": "animal models", "test": "Smoke-induced lung damage animal models", "details": "animal models in vivo"}, "Solubility in water": {"test": "Solubility in water", "type": "physicochemical", "details": "drug substance"}, "[3]": {"test": "Excretion into milk of lactating rats", "type": "in vivo, rat", "details": "roflumilast and/or its metabolites", "source_text": "Excretion of roflumilast and/or metabolites into human milk is probable. Roflumilast should not be used during breast-feeding."}, "[4]": {"details": "in vivo"}, "[5]": {"test": "Blood-brain barrier penetration of radiolabeled roflumilast in rats"}, "patients with COPD [6]": {"test_system": "patients with COPD", "test": "Sputum cell counts in patients with COPD"}, "experimental animals": {"test_system": "experimental animals", "test": "Infiltration of leukocytes into the lungs of experimental animals"}, "CYP 2B6": {"test_system": "CYP 2B6", "test": "CYP 2B6 induction in vitro"}, "[7]": {"test_system": "patients with COPD and chronic cough and sputum production", "text": "Their postbronchodilator FEV1 was 50% or less than the predicted value.\nPatients could use short acting β2 agonists as needed and could continue treatment with long acting β2 agonists or short acting anti-cholinergic drugs at stable doses. However, inhaled corticosteroids and long acting anti-cholinergic drugs were not allowed during the study. Eligible patients were stratified according to their use of long acting β2 agonists and smoking status.\nThe primary endpoints were the change in prebronchodilator FEV1 during treatment and the rate of COPD exacerbations, defined as moderate if they required treatment with oral or parenteral corticosteroids, or severe if they were associated with hospital admission or death. […] Additionally, data for the total number of COPD exacerbations (as defined above together with episodes treated with antibiotics alone) and a range of spirometric outcomes were gathered.\nA negative binominal regression analysis was done to assess the robustness of the results against the distributional assumptions. Data were analyzed in the two studies separately and in a pooled analysis. Changes were analyzed from baseline in prebronchodilator and postbronchodilator FEV1 using a repeated-measures analysis of covariance with all data available for patients during the 52-week treatment. (Reference 18) A Cox proportional hazard model was used to test for differences in time-to-event data. For analysis of the concentrations of C-reactive protein, an analysis of covariance model was used, with the method of the last observation carried forward for the log-transformed data for concentrations. For the regression models (analysis of covariance, Cox, and Poisson), the covariates included treatment, age, sex, smoking status (current or former smoker), country, and treatment with long acting β2 agonists. In the Cox analysis, country was included as a stratum. In the Poisson regression analysis, baseline postbronchodilator FEV1 (% of predicted value) was also included as a covariate. To address the issue of multiple comparisons, a hierarchical hypothesis-testing approach was adopted, If the primary outcomes were positive, the key secondary outcomes were tested in the order above. If a significant difference between treatments was not obtained for the primary or key secondary outcomes, all subsequent analyses were considered exploratory.\nIn the one-year trials, long-acting beta-2 agonists (LABA) were allowed and used in approximately 50% of the study population. The use of inhaled corticosteroids was terminated at randomization. Lung function (pre-bronchodilator forced expiratory volume in one second, FEV1) and the rate of moderate exacerbations (requiring intervention with systemic glucocorticosteroids) or severe exacerbations (resulting in hospitalization and/or leading to death) were primary endpoints. Secondary endpoints in both studies included further evaluation of exacerbations and lung function parameters, dyspnea, and use of reliever medication."}, "Plasma protein binding": {"test": "Plasma protein binding", "type": "in vitro ADME"}, "patients with COPD [8]": {"test_system": "patients with COPD", "details": "Reference 13; cited from earlier work"}, "PDE3": {"test_system": "PDE3", "test": "PDE3 inhibition", "type": "biochemical", "details": "at the doses administered"}, "[9]": {"test": "Standard battery of genotoxicity assays in vitro and in vivo"}, "[10]": {"test_system": "human airway epithelial cells", "test": "MUC5AC formation", "details": "human airway epithelial cells and animal experiments"}, "[11]": {"test_system": "unselected patients with severe COPD", "details": "Reference 14; cited from earlier work"}, "[12]": {"details": "M2-124 and M2-125 pooled, 52 weeks"}, "[13]": {"details": "M2-124 and M2-125 pooled, 52 weeks, mean"}, "[14]": {"details": "M2-124 and M2-125 pooled, 52 weeks, mean (SE)"}, "[15]": {"details": "M2-124 and M2-125 pooled, Roflumilast vs Placebo"}, "[16]": {"details": "M2-124 and M2-125 pooled, Roflumilast vs Placebo, listed as roflumilast"}}, "note": "Where two headings read alike, the source gives them in different places."}
{"smiles": "O=C(Nc1c(Cl)cncc1Cl)c1ccc(OC(F)F)c(OCC2CC2)c1", "note": "[Roflumilast, N-(3,5-dichloropyridin-4-yl)-3-cyclopropylmethoxy-4-difluoromethoxy-benzamide]", "values": [{"measurement": "Influx of neutrophils and eosinophils into the airways", "setting": "[1]", "value": "attenuated"}, {"measurement": "Bronchial ciliary activity", "setting": "[2]", "value": "stimulated"}, {"measurement": "Smoke-induced destruction of lung parenchyma", "setting": "animal models", "value": "reduced"}, {"measurement": "Solubility in water", "setting": "Solubility in water", "value": "poorly soluble"}, {"measurement": "Excretion into milk", "setting": "[3]", "value": "excreted into the milk"}, {"measurement": "Delay of tmax by food intake", "setting": "[4]; human", "value": "one"}, {"measurement": "Plasma AUC", "setting": "[4]; human", "value": 28, "unit": "ugxh/L"}, {"measurement": "Radioactivity recovered in the urine", "setting": "[4]; human", "value": "about 70%"}, {"measurement": "Reduction of Cmax by food intake", "setting": "[4]; human", "value": "approximately 40%"}, {"measurement": "Time of maximum plasma concentrations after dosing, range", "setting": "[4]; human", "value": "0.5 to 2", "unit": "h"}, {"measurement": "Time to steady state plasma concentrations", "setting": "[4]; human", "value": "approximately 4 days"}, {"measurement": "Effect of food intake on total PDE4 inhibitory activity", "setting": "[4]", "value": "does not affect"}, {"measurement": "Time of maximum plasma concentrations after dosing", "setting": "[4]", "value": "approximately one"}, {"measurement": "Penetration across the blood-brain barrier", "setting": "[5]", "value": "low penetration"}, {"measurement": "Sputum neutrophils", "setting": "patients with COPD [6]", "value": "reduced"}, {"measurement": "Infiltration of leukocytes, in particular neutrophils, into the lungs", "setting": "experimental animals", "value": "inhibited"}, {"measurement": "Induction of CYP 2B6", "setting": "CYP 2B6", "value": "weak induction"}, {"measurement": "Change in C-reactive protein from baseline to last postrandomisation visit", "setting": "[7]; M2-124 and M2-125 pooled", "value": "1.1; n = 1371 mg/L"}, {"measurement": "Median time to first exacerbation (moderate or severe) [IQR]", "setting": "[7]; M2-124 and M2-125 pooled", "value": "80.0 (28.0-190.0) days"}, {"measurement": "Median time to second exacerbation (moderate or severe) [IQR]", "setting": "[7]; M2-124 and M2-125 pooled", "value": "177.0 (92.0-262.0) days"}, {"measurement": "Time to mortality (mean, SD)", "setting": "[7]; M2-124 and M2-125 pooled", "value": 206.1, "unit": "days"}, {"measurement": "Exacerbations moderate or severe, mean rate [95% CI]", "setting": "[7]; [12]", "value": "1.14 (1.05-1.24); per patient, per year"}, {"measurement": "Exacerbations moderate, mean rate [95% CI]", "setting": "[7]; [12]", "value": "0.99 (0.91-1.08); per patient, per year"}, {"measurement": "Exacerbations severe, mean rate [95% CI]", "setting": "[7]; [12]", "value": "0.12 (0.10-0.16); per patient, per year"}, {"measurement": "Exacerbations treated with systemic corticosteroids, antibiotics, or both, mean rate [95% CI]", "setting": "[7]; [12]", "value": "1.13 (1.04-1.23); per patient, per year"}, {"measurement": "Change in postbronchodillator FEV1/FVC", "setting": "[7]; [13]", "value": 0.517, "unit": "%"}, {"measurement": "Change in prebronchodillator FEV1/FVC", "setting": "[7]; [13]", "value": 0.247, "unit": "%"}, {"measurement": "Change in postbronchodillator FEF25-75", "setting": "[7]; [14]", "value": "21 (4); mL/s"}, {"measurement": "Change in postbronchodillator FEV1", "setting": "[7]; [14]", "value": "50 (6); mL"}, {"measurement": "Change in postbronchodillator FVC", "setting": "[7]; [14]", "value": "67 (10); mL"}, {"measurement": "Change in postbronchodillator PEF", "setting": "[7]; [14]", "value": "4.93 (1.05); L/min"}, {"measurement": "Change in prebronchodillator FEF25-75", "setting": "[7]; [14]", "value": "16 (4); mL/s"}, {"measurement": "Change in prebronchodillator FEV1", "setting": "[7]; [14]", "value": "40 (6); mL"}, {"measurement": "Change in prebronchodillator FVC", "setting": "[7]; [14]", "value": "64 (10); mL"}, {"measurement": "Change in prebronchodillator PEF", "setting": "[7]; [14]", "value": "3.69 (1.02); L/min"}, {"measurement": "Change in C-reactive protein from baseline to last postrandomisation visit, difference", "setting": "[7]; [15]", "value": "Difference 1.0 mg/L"}, {"measurement": "Change in postbronchodillator FEF25-75, difference", "setting": "[7]; [15]", "value": "Difference 19 mL/s"}, {"measurement": "Change in postbronchodillator FEV1, difference", "setting": "[7]; [15]", "value": "Difference 55 mL"}, {"measurement": "Change in postbronchodillator FEV1/FVC, difference", "setting": "[7]; [15]", "value": "Difference 0.426%"}, {"measurement": "Change in postbronchodillator FVC, difference", "setting": "[7]; [15]", "value": "Difference 101 mL"}, {"measurement": "Change in postbronchodillator PEF, difference", "setting": "[7]; [15]", "value": "Difference 4.72 L/min"}, {"measurement": "Change in prebronchodillator FEF25-75, difference", "setting": "[7]; [15]", "value": "Difference 20 mL/s"}, {"measurement": "Change in prebronchodillator FEV1, difference", "setting": "[7]; [15]", "value": "Difference 48 mL"}, {"measurement": "Change in prebronchodillator FEV1/FVC, difference", "setting": "[7]; [15]", "value": "Difference 0.393%"}, {"measurement": "Change in prebronchodillator FVC, difference", "setting": "[7]; [15]", "value": "Difference 98 mL"}, {"measurement": "Change in prebronchodillator PEF, difference", "setting": "[7]; [15]", "value": "Difference 3.53 L/min"}, {"measurement": "EQ-5D total score, difference", "setting": "[7]; [15]", "value": 0.0023}, {"measurement": "TDI focal score, difference", "setting": "[7]; [15]", "value": "Difference 0.3"}, {"measurement": "Change in postbronchodillator FEV1, difference", "setting": "[7]; [16]", "value": 55, "unit": "mL"}, {"measurement": "Change in prebronchodillator FEV1, difference", "setting": "[7]; [16]", "value": 48, "unit": "mL"}, {"measurement": "TDI focal score, difference", "setting": "[7]; [16]", "value": 0.25}, {"measurement": "EQ-5D total score", "setting": "[7]; M2-124 and M2-125 pooled, mean", "value": 0.0072}, {"measurement": "TDI focal score", "setting": "[7]; M2-124 and M2-125 pooled, mean (SE)", "value": "0.7 (0.1);"}, {"measurement": "Probability of withdrawal due to adverse events in the first 12 weeks", "setting": "[7]; human, in vivo", "value": 8, "unit": "%"}, {"measurement": "Subsequent probability of withdrawal because of adverse events", "setting": "[7]; human, in vivo", "value": 9, "unit": "%"}, {"measurement": "Adverse events reported, patients", "setting": "[7]; human, in vivo, 52 weeks", "value": "1040 (67%) number (%)"}, {"measurement": "Atrial fibrillation, patients", "setting": "[7]; human, in vivo, 52 weeks", "value": "17 (1%) number (%)"}, {"measurement": "Discontinuations associated with adverse events", "setting": "[7]; human, in vivo, 52 weeks", "value": "219 [14%] number [%]"}, {"measurement": "Reported cardiovascular adverse events", "setting": "[7]; human, in vivo, 52 weeks", "value": "108 [7%] number [%]"}, {"measurement": "Serious adverse events reported, patients", "setting": "[7]; human, in vivo, 52 weeks", "value": "301 (19%) number (%)"}, {"measurement": "Vomiting, patients", "setting": "[7]; human, in vivo, 52 weeks", "value": "17 (1%) number (%)"}, {"measurement": "Incidence of pneumonia or other pulmonary infections", "setting": "[7]; in vivo", "value": "did not increase"}, {"measurement": "Mean absolute weight change over the 1-year period", "setting": "[7]; in vivo", "value": -2.1, "unit": "kg"}, {"measurement": "Neurological or cardiac toxicity", "setting": "[7]; in vivo", "value": "No significant neurological or cardiac toxicity"}, {"measurement": "Patients with a decrease of body weight", "setting": "[7]; in vivo", "value": 62, "unit": "%"}, {"measurement": "Weight loss in patients not reporting diarrhea, nausea, vomiting, or headache", "setting": "[7]; in vivo", "value": 2.02, "unit": "kg"}, {"measurement": "Weight loss in patients reporting diarrhea, nausea, vomiting, or headache", "setting": "[7]; in vivo", "value": 2.60, "unit": "kg"}, {"measurement": "Number of patients experiencing a moderate exacerbation", "setting": "[7]; pooled", "value": 624}, {"measurement": "Number of patients experiencing a severe exacerbation", "setting": "[7]; pooled", "value": 157}, {"measurement": "Estimated rate of moderate or severe exacerbations per patient per year, lower than placebo", "setting": "[7]; pooled analysis", "value": 17, "unit": "%"}, {"measurement": "Exacerbations (excluding severe events) requiring systemic corticosteroids or antibiotics, or both, reduction vs placebo", "setting": "[7]; pooled analysis", "value": 16, "unit": "%"}, {"measurement": "Mean prebronchodilator FEV1 increase with long acting β2 agonist", "setting": "[7]; pooled, compared to placebo, concomitant LABA", "value": 46, "unit": "mL"}, {"measurement": "Mean prebronchodilator FEV1 increase without long acting β2 agonist", "setting": "[7]; pooled, compared to placebo, no concomitant LABA", "value": 50, "unit": "mL"}, {"measurement": "fraction unbound", "setting": "Plasma protein binding", "value": "~0.01"}, {"measurement": "Airway inflammation, sputum neutrophil and eosinophil counts", "setting": "patients with COPD [8]", "value": "reduces airway inflammation"}, {"measurement": "Inhibitory effect on PDE3", "setting": "PDE3", "value": "no appreciable inhibitory effect"}, {"measurement": "Genotoxic potential", "setting": "[9]", "value": "did not reveal a genotoxic potential"}, {"measurement": "Formation of MUC5AC", "setting": "[10]", "value": "inhibited"}, {"measurement": "Frequency of exacerbations", "setting": "[11]", "value": "did not significantly reduce"}]}
